{"source": "patent US8252788B2", "about": "“Therapeutic compounds” (Allergan, Inc., priority 2008, dated 2012)", "key": {"[1]": {"test_system": "laser-induced hypertensive monkeys", "experiment": "In vivo intraocular pressure (IOP) test in laser-induced hypertensive monkeys"}, "[2]": {"test_system": "normotensive dogs", "experiment": "In vivo intraocular pressure (IOP) test in normotensive dogs", "method": "Title compounds H145 and H146 from above are tested in vivo to test its ability to reduce intraocular pressure. Compound H145 is tested in normotensive dogs."}, "[3]": {"test_system": "lashes and adjacent hairs", "experiment": "Observation of lashes and adjacent hairs in glaucoma patients treated with bimatoprost in one eye", "assay_type": "in vivo", "text": "In the course of treating patients having glaucoma, treatment may only be appropriate in one eye. […] The lash appearance on the lids of the treated eyes would have appeared quite attractive if it represented a bilateral phenomenon. As a result of its asymmetric nature, the long lashes on one side could be construed as disturbing from a cosmetic standpoint. A systemic examination was preformed as a result of the asymmetric phenomenon. It soon became apparent that this altered appearance was not an isolated finding. […] Definite differences could be identified to varying degrees in the lashes and adjacent hairs of all patients who were taking the drug on a unilateral basis for longer than 6 months.\nThe changes in the lashes were apparent on gross inspection in several patients once attention was focused on the issue. In those with light colored hair and lashes, the differences were only seen easily with the aid of the high magnification and lighting capabilities of the slit lamp biomicroscope. In the course of glaucoma follow-up examination, attention is generally immediately focused on the eye itself. As a result of the high power magnification needed only one eye is seen at a time and the eye is seen at a high enough power that the lashes are not in focus. […]"}}}
{"smiles": "O=C(OCCO)c1ccc(CCC[C@@H]2[C@@H](CSc3cc(Cl)cc(Cl)c3)[C@H](O)C[C@H]2Cl)s1", "note": "[Compound H145]", "values": [{"measurement": "IOP versus baseline", "setting": "[1]", "result": "decreases from baseline"}, {"measurement": "intraocular pressure (IOP) versus baseline", "setting": "[2]", "result": "decreases from baseline"}]}
{"smiles": "O=C(OCCN1CCOCC1)c1ccc(CCC[C@@H]2[C@@H](CSc3cc(Cl)cc(Cl)c3)[C@H](O)C[C@H]2Cl)s1", "note": "[Compound H146]", "values": [{"measurement": "IOP versus baseline", "setting": "[1]", "result": "decreases from baseline"}, {"measurement": "intraocular pressure (IOP) versus baseline", "setting": "[2]", "result": "decreases from baseline"}]}
{"smiles": "O=C(OCCO)c1ccc(CCC[C@@H]2[C@@H](CNc3cc(Cl)cc(Cl)c3)[C@H](O)C[C@H]2Cl)s1", "note": "[Compound H147]", "values": [{"measurement": "IOP versus baseline", "setting": "[1]", "result": "decreases from baseline"}, {"measurement": "intraocular pressure (IOP) versus baseline", "setting": "[2]", "result": "decreases from baseline"}]}
{"smiles": "O=C(OCCN1CCOCC1)c1ccc(CCC[C@@H]2[C@@H](CNc3cc(Cl)cc(Cl)c3)[C@H](O)C[C@H]2Cl)s1", "note": "[Compound H148]", "values": [{"measurement": "IOP versus baseline", "setting": "[1]", "result": "decreases from baseline"}, {"measurement": "intraocular pressure (IOP) versus baseline", "setting": "[2]", "result": "decreases from baseline"}]}
{"smiles": "CCNC(=O)CCC/C=C\\C[C@@H]1[C@@H](/C=C/[C@@H](O)CCc2ccccc2)[C@H](O)C[C@@H]1O", "note": "[bimatoprost]", "values": [{"measurement": "lash appearance in treated eye versus non-treated eye", "setting": "[3]; glaucoma patient treated in one eye", "result": "longer, thicker, and fuller"}, {"measurement": "hair growth in treated versus control areas", "setting": "[3]; multiple parameters of hair appearance, many subjects", "result": "stimulated"}]}
